# Biological target: GTP-binding protein Rheb (Homo sapiens, UniProt Q15382)
# Assay: In Vitro Kinase Assay: For the Rheb-dependent in vitro kinase assay, HA-GST-Rheb was first loaded with GTP-γ-S (Millipore #20-176) by incubating 600 ng/μL Rheb with 10 mM EDTA and 0.4 mM GTP-γ-S at 30° C. for 10 minutes. MgCl2 was added to a final concentration of 20 mM to stop the reaction. This mixture was used at 20× in the kinase assay.Loaded HA-GST-Rheb was then incubated with compound (final DMSO concentration 1%) for 30 minutes at room temperature. mTORC1, GFP-4E-BP1 substrate (Life Technologies #PV4759), and kinase assay buffer (HEPES pH 7.4, KCl, MgCl2) were added to the Rheb-compound mixture and incubated at room temperature for 20 minutes. ATP was then added, and the kinase reaction proceeded at 30° C. for 45 min before being stopped by the addition of SDS-PAGE loading buffer for Westerns or 10 mM EDTA for the LanthaScreen readout. During the kinase reaction, the final concentration of reagents is as follows: Rheb—30 ng/μL, compound—variable, GTPγS—0.02 mM, EDTA—0.5 mM, MgCl2—1 mM, mTORC1—fixed volume of prep (molarity unknown), GFP-4E-BP1 substrate—15 ng/μL, ATP—0.5 mM. For LanthaScreen analysis (Thermo Fisher #PV4757), the manufacturer's instructions were followed and conditions were optimized for the amount of Rheb and mTORC1. The final concentration of reagents was as follows: 100 nM loaded HA-GST-Rheb, compound (variable), 0.5 mM EDTA, 10 mM MgCl2, 25 mM HEPES pH 7.4, 50 mM KCl, mTORC1 (fixed volume—0.1 μL in 10 μL total volume), 0.4 μM GFP-4E-BP1 substrate, 0.5 mM ATP. Results were read on an EnVision reader (PerkinElmer) using 495ex/520em filters (Life Technologies, #PV00315).
# Chain of GTP-binding protein Rheb (Q15382 whole entry): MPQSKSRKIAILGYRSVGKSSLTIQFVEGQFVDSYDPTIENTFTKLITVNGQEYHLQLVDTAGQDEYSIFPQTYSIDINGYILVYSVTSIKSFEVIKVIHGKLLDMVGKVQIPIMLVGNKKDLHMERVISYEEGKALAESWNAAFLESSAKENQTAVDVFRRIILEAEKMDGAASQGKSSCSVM
row,Compound,IC50 [µM]
1,Cc1cc(C(C)(C)C)ccc1Sc1cc(Cl)cc2[nH]c(CO)cc12,< 10
2,CN1CCCN(c2ccc(NC(=O)c3cc4c(-c5cc(Cl)cc(Cl)c5)cc(Cl)cc4[nH]3)cc2F)CC1,< 10
3,Cc1cc(C(C)(C)C)ccc1Sc1cc(Cl)cc2[nH]c(C(=O)O)cc12,< 10
4,OCc1cc2c(Sc3ccc(Cl)cc3Cl)cc(Cl)cc2[nH]1,< 10
5,O=C(O)c1cc2c(Sc3ccc(C(F)(F)F)cc3)cc(Cl)cc2[nH]1,< 10

# Source: ChEMBL document CHEMBL5729117, “Heteroaryl Rheb inhibitors and uses thereof” (2022)
